Test results: BigSolDB 2.1

CC(C)(Oc1ccc(CCNC(=O)c2ccc(Cl)cc2)cc1)C(=O)O
Settings	solubility (mole fraction)
in 2-butanone, 283.14 K	0.00191
in 2-butanone, 288.16 K	0.00227
in 2-butanone, 293.17 K	0.00268
in 2-butanone, 298.16 K	0.00312
in 2-butanone, 303.17 K	0.0037
in 2-butanone, 308.14 K	0.00436
in 2-butanone, 313.16 K	0.00505
in 2-butanone, 318.17 K	0.0058
in 2-butanone, 323.16 K	0.00685
in acetonitrile, 283.24 K	0.000113
in acetonitrile, 288.25 K	0.000153
in acetonitrile, 293.24 K	0.000202
in acetonitrile, 298.25 K	0.000274
in acetonitrile, 303.24 K	0.000355
in acetonitrile, 308.22 K	0.00047
in acetonitrile, 313.22 K	0.000625
in acetonitrile, 318.23 K	0.000809
in acetonitrile, 323.24 K	0.00103
in cyclohexanone, 283.14 K	0.00496
in cyclohexanone, 288.19 K	0.00605
in cyclohexanone, 293.24 K	0.00732
in cyclohexanone, 298.14 K	0.00891
in cyclohexanone, 303.27 K	0.0107
in cyclohexanone, 308.13 K	0.0128
in cyclohexanone, 313.19 K	0.0152
in cyclohexanone, 318.22 K	0.0177
in cyclohexanone, 323.22 K	0.0204
in ethanol, 283.14 K	0.00258
in ethanol, 288.24 K	0.00282
in ethanol, 293.3 K	0.00329
in ethanol, 298.28 K	0.00391
in ethanol, 303.24 K	0.00465
in ethanol, 308.22 K	0.00538
in ethanol, 313.13 K	0.00664
in ethanol, 318.18 K	0.00802
in ethanol, 323.24 K	0.00972
in ethyl acetate, 283.17 K	0.000557
in ethyl acetate, 288.17 K	0.000665
in ethyl acetate, 293.16 K	0.000789
in ethyl acetate, 298.14 K	0.000994
in ethyl acetate, 303.17 K	0.0012
in ethyl acetate, 308.14 K	0.00147
in ethyl acetate, 313.17 K	0.00178
in ethyl acetate, 318.16 K	0.0022
in ethyl acetate, 323.19 K	0.00262
in isobutanol, 282.95 K	0.00115
in isobutanol, 288.04 K	0.0015
in isobutanol, 292.93 K	0.00203
in isobutanol, 298.24 K	0.0026
in isobutanol, 303.2 K	0.00316
in isobutanol, 308.22 K	0.00396
in isobutanol, 313.23 K	0.00489
in isobutanol, 318.17 K	0.00603
in isobutanol, 323.2 K	0.00742
in isopentanol, 283.77 K	0.00149
in isopentanol, 288.56 K	0.00196
in isopentanol, 293.5 K	0.00248
in isopentanol, 298.59 K	0.00304
in isopentanol, 303.13 K	0.00365
in isopentanol, 308.21 K	0.00452
in isopentanol, 313.25 K	0.00555
in isopentanol, 318.17 K	0.00672
in isopentanol, 323.25 K	0.00817
in isopropanol, 283.06 K	0.00146
in isopropanol, 288.14 K	0.00195
in isopropanol, 293.19 K	0.00245
in isopropanol, 298.24 K	0.00302
in isopropanol, 303.21 K	0.00371
in isopropanol, 308.16 K	0.00462
in isopropanol, 313.14 K	0.0057
in isopropanol, 318.22 K	0.00705
in isopropanol, 323.2 K	0.00852
in methanol, 283.12 K	0.00233
in methanol, 288.24 K	0.00248
in methanol, 293.26 K	0.00282
in methanol, 298.17 K	0.00333
in methanol, 303.12 K	0.00408
in methanol, 308.14 K	0.00498
in methanol, 313.13 K	0.00614
in methanol, 318.14 K	0.00754
in methanol, 323.12 K	0.00917
in methyl propionate, 283.19 K	0.000428
in methyl propionate, 288.22 K	0.000532
in methyl propionate, 293.23 K	0.000651
in methyl propionate, 298.17 K	0.000823
in methyl propionate, 303.23 K	0.001
in methyl propionate, 308.14 K	0.0012
in methyl propionate, 313.24 K	0.00148
in methyl propionate, 318.16 K	0.00182
in methyl propionate, 323.18 K	0.00221
in n-butanol, 283.16 K	0.00227
in n-butanol, 288.17 K	0.0027
in n-butanol, 293.14 K	0.00332
in n-butanol, 298.17 K	0.00403
in n-butanol, 303.16 K	0.00493
in n-butanol, 308.14 K	0.00599
in n-butanol, 313.17 K	0.00728
in n-butanol, 318.16 K	0.00881
in n-butanol, 323.17 K	0.0104
in n-butyl acetate, 283.17 K	0.000327
in n-butyl acetate, 288.19 K	0.000401
in n-butyl acetate, 293.2 K	0.000494
in n-butyl acetate, 298.14 K	0.000629
in n-butyl acetate, 303.19 K	0.000779
in n-butyl acetate, 308.16 K	0.000948
in n-butyl acetate, 313.14 K	0.00113
in n-butyl acetate, 318.14 K	0.00138
in n-butyl acetate, 323.2 K	0.00167
in n-pentanol, 283.23 K	0.00233
in n-pentanol, 288.23 K	0.00286
in n-pentanol, 293.29 K	0.00344
in n-pentanol, 298.5 K	0.00408
in n-pentanol, 303.24 K	0.00497
in n-pentanol, 308.02 K	0.006
in n-pentanol, 313.08 K	0.0072
in n-pentanol, 317.95 K	0.00857
in n-pentanol, 322.74 K	0.0103
in n-propanol, 283.13 K	0.00239
in n-propanol, 288.18 K	0.00289
in n-propanol, 293.27 K	0.00351
in n-propanol, 298.53 K	0.00421
in n-propanol, 303.33 K	0.00517
in n-propanol, 308.23 K	0.00617
in n-propanol, 313.37 K	0.00729
in n-propanol, 318.35 K	0.00856
in n-propanol, 323.26 K	0.0104
in n-propyl acetate, 283.16 K	0.000457
in n-propyl acetate, 288.24 K	0.000548
in n-propyl acetate, 293.16 K	0.000665
in n-propyl acetate, 298.18 K	0.000819
in n-propyl acetate, 303.16 K	0.001
in n-propyl acetate, 308.16 K	0.00122
in n-propyl acetate, 313.18 K	0.00146
in n-propyl acetate, 318.16 K	0.00177
in n-propyl acetate, 323.16 K	0.00214
in sec-butanol, 283.16 K	0.0023
in sec-butanol, 288.17 K	0.00294
in sec-butanol, 293.14 K	0.00365
in sec-butanol, 298.16 K	0.00444
in sec-butanol, 303.16 K	0.0053
in sec-butanol, 308.14 K	0.00642
in sec-butanol, 313.17 K	0.00766
in sec-butanol, 318.16 K	0.00914
in sec-butanol, 323.16 K	0.0106
